Structures can show the parent of a compound that is named as a salt.
Legend:
intraocular pressure = conditions: topical application or systemic injection; literature; cited from earlier work
[1] = target: T1, cannabinoid receptor binding sites (CP 55940 binding sites) (Rattus norvegicus, UniProt P20272); conditions: result in words, literature (Devane et al.), radio-labelled CP 55940; natural and synthetic cannabinoids; cited from earlier work
T1 construct: from tissue; host or cells: rat brain membranes (inferred from the cited Devane et al. 1988)

[2] = target: T1, cannabinoid receptor binding sites (CP 55940 binding sites); test: CP 55940 binding assay (given "CP 55490 [sic] binding assay" in the source)
Description: (§1) Med. Assoc. 217, 1392 (1971)]. […] Opth. 7, 921-923 (1975); Green and Pederson, Effect of delta-9 Tetrahydrocannabinol on Aqueous Dynamics and Ciliary Body Permeability in the Rabbit Eye., Exptl. Eye Research 15, 499-507 (1973); Colasanti, Craig and Allara, Intraocular Pressure, Ocular Toxicity and Neurotoxicity after Administration of Cannabinol or Cannabigerol, Exptl. Eye Research 39, 252-259 (1984)]. Similarly, synthetic cannabinoids also reduce intraocular pressure [Green, Symunds, Oliver and Elijah, Intraocular Pressure Following Systemic Administration of Cannabinoids., Curr. Eye Research 2, 247-253 (1982); Tiedeman, Shields, Weber, Crow, Coccetto, Harris and Howes, Ophthalmology, 88, 270-277 (1981); Colasanti et al., supra]. […] 34, 605-613 (1988)]. Natural and synthetic cannabinoids and representative examples of the compounds of the present invention, bind to CP 55940 binding sites. […] It is believed that agonist activity at the cannabinoid receptor mediates the anti-glaucoma actions of cannabinoids, and that agonist activity at this receptor correlates with ocular pressure lowering actions in man.
The 3-R3 -4-arylcarbonyl-1-[(4-morpholinyl)-lower-alkyl]-1H-indoles of formula I were tested in the mouse vas deferens test and the CP 55490 binding assay. […]

cannabinoid receptor = target: T2, cannabinoid receptor (Mus musculus, UniProt P47746); test: mouse vas deferens (MVD) test, inhibition of contractions in vitro; format: cell-based; conditions: considered active at IC50 of 5.0 μM or less, read-out: MVD IC50 (inhibitory concentration which produces 50% of the maximum response)
T2 construct: mouse vasa deferentia (MVD) preparation in vitro; from tissue; host or cells: mouse vas deferens
Description: as §1
The 3-R3 -4-arylcarbonyl-1-[(4-morpholinyl)-lower-alkyl]-1H-indoles of formula I were tested in the mouse vas deferens test and the CP 55490 binding assay. The results, expressed as the IC50 in μM (the inhibitory concentration which produces 50% of the maximum response), are given in the following table, the compounds being identified by the example number above where their preparations are described.

T1 sequence (P20272 whole entry): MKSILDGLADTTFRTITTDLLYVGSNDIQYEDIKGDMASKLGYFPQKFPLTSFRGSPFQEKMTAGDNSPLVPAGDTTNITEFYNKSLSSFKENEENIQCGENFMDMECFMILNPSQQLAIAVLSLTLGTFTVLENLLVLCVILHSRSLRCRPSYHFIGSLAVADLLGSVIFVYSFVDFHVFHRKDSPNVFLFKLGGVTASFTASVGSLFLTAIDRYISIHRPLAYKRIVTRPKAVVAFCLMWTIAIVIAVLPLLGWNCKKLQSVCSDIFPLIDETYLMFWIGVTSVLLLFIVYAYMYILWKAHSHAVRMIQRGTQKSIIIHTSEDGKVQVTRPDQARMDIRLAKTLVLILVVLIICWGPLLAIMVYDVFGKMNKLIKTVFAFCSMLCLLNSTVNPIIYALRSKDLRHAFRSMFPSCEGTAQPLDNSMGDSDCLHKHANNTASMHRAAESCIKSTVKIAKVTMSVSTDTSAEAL
T2 sequence (P47746 whole entry): as the sequence (P20272 whole entry) above, with E95D counted along it

SMILES | IC50 (cannabinoid receptor) [nM] | also measured
CCCCCc1cc(O)c2c(c1)OC(C)(C)C1CCC(C)=CC21 (single isomer, unassigned) [delta-9 tetrahydrocannabinol] | – | intraocular pressure (intraocular pressure): reduces intraocular pressure
CCCCCCC(C)(C)c1ccc([C@@H]2C[C@H](O)CC[C@H]2CCCO)c(O)c1 [CP 55940, 4-(1,1-dimethylheptyl)-2,3'-dihydroxy-6'alpha-(3-hydroxypropyl)-1',2',3',4',5',6'-hexahydrobiphenyl] | – | binding to CP 55940 binding sites / cannabinoid receptor [1]: binds in a specific and saturable manner
COc1ccc(C(=O)c2cccc3c2ccn3CCN2CCOCC2)cc1 [Example 1A, 4-(4-methoxybenzoyl)-1-[2-(4-morpholinyl)ethyl]-1H-indole hydrochloride] | 76 | IC50 [2]: 444 nM
COc1ccc(C(=O)c2cccc3c2ccn3CCCN2CCOCC2)cc1 [Example 1B, 4-(4-methoxybenzoyl)-1-[3-(4-morpholinyl)propyl]-1H-indole hydrochloride] | 33 | –
O=C(c1cccc2ccccc12)c1cccc2c1ccn2CCN1CCOCC1 [Example 1C, 1-[2-(4-morpholinyl)ethyl]-4-(1-naphthylcarbonyl)-1H-indole p-toluenesulfonate hydrate 3:1] | 3 | –
O=C(c1ccc2ccccc2c1)c1cccc2c1ccn2CCN1CCOCC1 [Example 1D, 4-(2-naphthylcarbonyl)-1-[2-(4-morpholinyl)ethyl]-1H-indolehydrochloride] | 163 | IC50 [2]: 363 nM
COc1ccc(C(=O)c2cccc3c2c(C)cn3CCN2CCOCC2)cc1 [Example 1E, 4-(4-methoxybenzoyl)-3-methyl-1-[2-(4-morpholinyl)ethyl)-1H-indole hydrochloride] | 5000 | –

Reference: US5081122A, “Antiglaucoma compositions containing 4-arylcarbonyl-1-(4-morpholinyl)-lower-alkyl)-1H-indoles and method of use thereof” (Sterling Drug Inc., priority 1990, dated 1992)
